# Measured values as given in patent US20160264616A1, “THERAPEUTIC COMPOUNDS AND METHODS” (priority 2015, published 2016).
# “Also recorded” adds a separate entry of the source.
# Legend:
# RGS17 [1] = target: T1, RGS17 (Homo sapiens, UniProt Q9UGC6); experiment: Isothermal titration calorimetry (ITC); type: binding; conditions: for Gibbs free energy of binding / binding enthalpy ΔH / entropic component TΔS / Kd: ITC; for Kd: 25 C, read-out: dissociation constant (Kd)
# T1 construct: This is the same RGS17 construct used in the high throughput screening campaign that is fully active despite the N-terminal truncation; made in house
# T1 sequence (Q9UGC6 84-200 limits assumed): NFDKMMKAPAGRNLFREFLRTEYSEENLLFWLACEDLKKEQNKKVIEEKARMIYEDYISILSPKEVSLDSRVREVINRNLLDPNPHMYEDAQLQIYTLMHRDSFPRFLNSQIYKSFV
# Procedure: ITC was used to determine the binding properties of the lead compounds in solution by determining the dissociation constant (Kd) and stoichiometry (n) of the interaction between RGS17 and the inhibitor compounds.
# RGS17 was concentrated in ITC sample buffer (50 mM HEPES pH 7.5, 100 mM NaCl and 1 mM beta-mercaptoethanol) at 50 μM. […] DMSO concentration in both compound and RGS17 sample was 1%, to account for any DMSO effects. Total injections for UI-1956 were set to 5 μL with a duration time of 10 secs and spacing of 240 secs and for UI-5 were set to 12 μL with a duration time of 24 secs and spacing of 240 secs. The total amount of injections for UI-1956 and UI-5 were, 32 and 23 respectively. All experiments were conducted on a GE MicroCal VP-ITC System (General Electric; Piscataway, N.J.) at 25 C. Heats of dilution were determined by averaging the heat evolved by the last five injections and subtracted from the raw data. The values for affinity, stoichiometry and change in enthalpy were then determined using the ORIGIN software provided by the manufacturer.
# [2] = target: T2, RGS17:Gαo protein:protein interaction (Homo sapiens, UniProt Q9UGC6); experiment: Compound reversibility, washed/unwashed AlphaScreen; type: binding; conditions: RGS17 incubated with 100 μM, washed three times
# T2 construct: This is the same RGS17 construct used in the high throughput screening campaign that is fully active despite the N-terminal truncation; made in house; host or cells: BL21 (DE3) E. coli for Gαo
# T2 sequence (Q9UGC6 84-200 limits assumed): T1 sequence (Q9UGC6 84-200 limits assumed)
# Procedure: To determine the reversibility of compound inhibition of the RGS17:Gαo protein:protein interaction, RGS17 was treated with 100 μM compound. This concentration was determined through the earlier dose-response experiments to inhibit the AlphaScreen assay >25% for each of the compounds (UI-5, UI-1590, UI-1907 and UI-1956). Upon completion of incubation with compounds, each sample was washed three times with ASB buffer. This method will promote dissociation of any compounds that are non-covalent where as any covalent modifiers would result in persistent protein:protein interaction inhibition.
# First, stock solutions of all four compounds were made at a 3× concentration or 300 μM for a final concentration of 100 μM. The final DMSO concentration in the assay was 1%. Next, RGS17 and Gαo were diluted into 300 μL of assay buffer (AlphaScreen Buffer: ASB) (50 mM HEPES, 100 mM NaCl, 0.1% Lubrol, 1% bovine serum albumin [BSA], pH 8.0) at a 3× concentration of 30 nM. Next, 7.2 μL of AlphaScreen beads were added to each separate protein. The protein and bead solution was incubated on ice for 30 mins in the dark. Upon completion of protein:bead conjugation, 600 μL of ASB was added to RGS17. To the Gαo sample, 279 μL of AMF (final concentration of 10 μM NaF, […], 10 nM AlCl3, and 5 μM GDP) and 321 μL of ASB were added. The RGS17 sample was split into 90 μL tubes and 90 μL of each compound or DMSO vehicle was added to the RGS17:bead mixture and incubated for 15 mins. Upon completion of compound incubation, the RGS17:bead mixture was washed 3 times with 1.8 mL of ASB. The RGS17 protein:bead samples were pelleted after each wash through centrifugation at 15, 000×g for 10 mins. After the final wash step, the RGS17 protein:bead pellet was resuspended in 180 μL of ASB. Next, to a 384 white plate, 30 μL of the RGS17 protein:bead: compound samples either washed or unwashed were added to each well in triplicate. Finally, 15 μL of the Gαo protein:bead sample was added to each well. The plate was incubated at room temperature, in the dark, for 1.25 hours and read on a Synergy2 plate reader (Biotek, Wisnooski, Vt.) with a sensitivity setting of 200, excitation at 680 nm, and emission read at 570 nm. All data was analyzed with Graphpad Prism 6.0. All data was compared to DMSO controls and corrected for possible bead loss due to washing steps.
# RGS17 [3] = target: T1, RGS17; experiment: MALDI-TOF mass spectrometry for covalent adducts; conditions: two-fold molar excess of compound, one hour
# Procedure: Matrix-assisted laser desorption ionization time of flight (MALDI-TOF) mass spectrometry was employed to evaluate if lead compounds were capable of covalently modifying RGS17's RGS homology domain. Covalent adducts on RGS17 were not detected with any compounds using two-fold molar excess of compound when incubated for one hour with RGS17ΔN (FIG. 8). For all samples, the only species that were observed were singly and doubly charged unmodified, intact protein with mass-to-charge ratios of […], respectively.
# Following treatment with compound, buffer was exchanged for 25 mM ammonium bicarbonate using an Amicon Ultra 10K 0.5 mL centrifugal filtration device (Millipore, Billerica, Mass.). Intact protein molecular weight was then assessed by matrix-assisted laser desorption/ionization-time of flight (MALDI-TOF) mass spectrometry. This was accomplished using a Bruker ultrafleXtreme in the linear TOF mode, employing 384-well Anchor chip targets (Billerica, Mass.). MALDI matrix reagents sinapinic acid and alpha-Cyano-4-hydroxycinnamic acid, purchased from Bruker, were reconstituted to 5 mg/ml in a 1:1 solution of acetonitrile and aqueous 0.1% formic acid (Billerica, Mass.). Samples in ammonium bicarbonate were diluted to 5 μM in aqueous 0.1% formic acid and introduced to target as a 1:1 solution of protein sample to MALDI matrix buffer. After crystal drying, samples were desalted on the target plate using aqueous 0.1% TFA. The laser was configured to emit pulses at 200 Hz at an optimal wavelength of 355 nm, and input energy of 500 μJ/pulse was attenuated 80-90%. Mass scale was calibrated using horse heart myoglobin, and 2000 shots were acquired per spectra.
# RGS4 = RGS4 (Homo sapiens, UniProt P49798); experiment: Selectivity versus RGS4; type: biochemical
# Procedure: Characterization of UI-5, UI-1590 and UI-1956 to determine mechanism of action focused initially on the determination of the potential irreversible modification of the RGS protein by the compounds. […] These compounds were tested for selectivity versus RGS4 which was chosen as a model protein due to its high level of sensitivity to thiol modification (18).
# [4] = Solubility in aqueous ITC buffer
# Sequence of RGS4 (P49798 whole entry, species assumed): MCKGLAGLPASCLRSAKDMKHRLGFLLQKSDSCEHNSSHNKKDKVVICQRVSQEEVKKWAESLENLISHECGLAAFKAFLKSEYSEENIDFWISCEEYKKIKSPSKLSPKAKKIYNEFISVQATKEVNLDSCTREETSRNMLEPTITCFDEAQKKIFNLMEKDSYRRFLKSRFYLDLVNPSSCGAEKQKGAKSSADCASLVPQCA
SMILES,dissociation constants as determined by isothermal titration calorimetry (summary) (RGS17 [1]),Gibbs free energy of binding (RGS17 [1]) [kcal/mol],binding enthalpy ΔH (RGS17 [1]) [kcal/mol],entropic component TΔS (RGS17 [1]) [kcal/mol],Kd (RGS17 [1]) [nM],reversibility of inhibition after washing [2],covalent adducts on RGS17 (RGS17 [3]),selectivity RGS17 versus RGS4 (RGS4),solubility at the high concentration needed for ITC [4],inhibition of RGS4 (RGS4)
"O=c1c(-c2cc(O)c(O)c(O)c2)coc2cc(O)c(O)c(O)c12 [UI-1956, 5,6,7-trihydroxy-3-(3,4,5-trihydroxyphenyl)-4H-chromen-4-one]",low μM to nM,-8.389,-2.158,6.2313,714,reversible,did not form adducts,selective for RGS17,soluble in the aqueous buffer,–
CC(C)=CCC[C@]1(C)C=Cc2c(O)c3c(c(CC=C(C)C)c2O1)O[C@]12C(=C[C@@H]4C[C@H]1C(C)(C)O[C@@]2(C/C=C(/C)C(=O)O)C4=O)C3=O [UI-1907],–,–,–,–,–,reversible,–,–,–,–
CC1=C(O)C(=O)C=C2C1=CC=C1[C@@]2(C)CC[C@@]2(C)[C@@H]3C[C@](C)(C(=O)O)CC[C@]3(C)CC[C@]12C [UI-1590],low μM to nM,–,–,–,–,reversible,did not form adducts,more selective for RGS17,not soluble at the high concentration required; also recorded: not amendable to ITC due to solubility issues,inhibited both RGS-4 and RGS-17
C[n+]1cc2c3c(ccc2c2ccc4cc5c(cc4c21)OCO5)OCO3 [UI-5],low μM to nM,-8.168,-0.148,8.0202,1020,reversible,did not form adducts,more selective for RGS17,soluble in the aqueous buffer,inhibited both RGS-4 and RGS-17
